How the values were obtained:
[1] = Oxidative stability of LDL nanoparticles (peroxide value, HPLC DHA content); assay type: physicochemical; details: under air at 55° C. for 5 hrs
Source text: FIGS. 4A-D. Oxidative stability: (FIG. 4A) HPLC determination of DHA content in LDL nanoparticles and DHA in heptane; (**) p<0.01 DHA in heptane versus LDL-DHA, after 14 days; (***) p<0.001, DHA in heptane versus LDL-DHA, after 21 and 28 days. (FIG. 4B) Peroxide indices of LDL, DHA in heptane, and LDL-DHA nanoparticles. Samples from FIG. 4A and FIG. 4B were stored at ambient conditions and were subjected to HPLC or peroxide analysis at baseline, 7, 14, 21, and 28 days; (**) p<0.01, DHA in heptane versus LDL-DHA after 14 days; (***) p<0.001, LDL or DHA in heptane versus LDL-DHA after 21 and 28 days; (****) p<0.0001, LDL versus LDL-DHA, after 28 days. […] DHA content is expressed as a percentage of baseline control. The peroxide index is expressed as mEq of peroxide/Kg of lipid.
Oxidative stability of LDL nanoparticles. […] Absorbance of red color formed from the presence of ferric ion was measured at 500 nm using UV-visible spectrophotometer (UV 1800, Shimadzu, USA) and the concentration was determined using a calibration curve of ferric chloride (FeCl3). […] The peroxide value was calculated using the following formula: PV=[Fe3+]/(55.84×g of lipids×2) where 55.84 is the molecular weight of iron. Results were expressed as mEq peroxide/kg lipid.

TIB-75 cells = test: Cell toxicity assay (MTS), TIB-75; assay type: cell-based, mouse; details: 40 μM LDL-DHA with 100 or 200 μM Vitamin E, 72 hours
Protocol: Cell culture. The mouse liver cell line TIB-73 (BNL CL.2) and its malignant counterpart TIB-75 (BNL 1MEA.7R.1) were obtained from ATCC (Manassas, Va.) and cultured in Dulbeco's modified Eagle's medium (DMEM) supplemented with 10% fetal bovine serum (FBS). Cells were grown at 37° C. in an atmosphere of 5% CO2 in a humidified incubator.
Cell toxicity assay (MTS). Each cell type was seeded in 96-well plates (2×10^3 cells/well). After 48 hrs of culture, the cells received various concentrations of the LDL-DHA nanoparticles ranging from 0 to 100 μM (DHA). For controls (LDL-OA/TO) dosing went as high as 200 μM. At the end of the 72 hr treatment period, the cell viability was measured by the MTS assay as recommended by the manufacturer. In brief, 20 μL MTS solution was added to each well and cells were incubated at 37° C. for 4 hrs followed by absorbance readings at 490 nm. The relative cell viability is expressed as a percentage of the non treated controls.

CC/C=C\C/C=C\C/C=C\C/C=C\C/C=C\C/C=C\CCC(=O)O [DHA in heptane, docosahexaenoic acid]
oxidative stability in final stress test [1]: significant degradative peroxidation

vitamin E
effect of co-incubation on LDL-DHA cytotoxicity in TIB-75 cells (TIB-75 cells): effectively abrogate the cytotoxicity of LDL-DHA

From patent publication US9889092B2, “Low density lipoprotein nanocarriers for targeted delivery of omega-3 polyunsaturated fatty acids to cancer” (The Board of Regents of the University of Texas System, priority 2013, dated 2018)
